System: sterile liquid medium inoculated with fresh morning saliva
Experiment: In vitro test for reduction of bad breath (inoculated medium smelled by a panel of testers)
Format: cell-based
Settings: 0.05% added to inoculated samples, incubated at 37° C. for some days
Protocol: In Vitro Test for Reduction of Bad Breath
The test is based on the work of Goldberg and Rosenberg (Production of Oral Malodor in an in vitro System, S. Goldberg and M. Rosenberg, pp. 143-150, in: Bad Breath—A Multidisciplinary Approach, eds: D. van Steenberghe, M. Rosenberg, Leuven University Press, 1996) and was adapted for better reproducibility.
A sterile liquid medium inoculated with fresh morning saliva is incubated at 37° C. for some days and then smelled by a panel of testers.
An intensive, typical bad breath odour had formed. Non-inoculated controls have only a weak smell of the medium.
Triclosan® (5-chloro-2-(2,4-dichlorophenoxy)phenol) was added to inoculated samples in a concentration of 0.05% as a control for the tests.
By addition of in each case 0.01% of the mixtures E-1 to E-6 according to the invention (see Table 1) to inoculated samples, no smell—analogously to Triclosan®—was to be found after the incubation time. This value also corresponds to the minimum active concentration.
If 0.05% of a mixture according to the invention is added to the inoculated medium only one hour before the sensory evaluation, an unpleasant mixed smell of bad breath and a weak note of the mixture according to the invention is to be observed.

`Oc1cc(Cl)ccc1Oc1ccc(Cl)cc1Cl` [Triclosan, 5-chloro-2-(2,4-dichlorophenoxy)phenol] was tested, and the “smell after the incubation” value was “same weak smell of the medium as the non-inoculated samples”.
